Experimental data: patent US8557840B2, “Herbicidal compounds” (Syngenta Limited, priority 2008, dated 2013)

Legend:
Format in all cases: in vivo
Solanum nigrum = assay: Herbicidal action, post-emergence, seed trays in climatic chamber (Example B1); conditions: 1000 g/ha, evaluated after 9 days, 10=total damage to plant, 0=no damage to plant
Experimental: (§1) Seeds of a variety of test species were sown in sterilised standard soil in seed trays each having 96 cells. […] The plants were grown in the climatic chamber after application at (24/19° C., day/night; 13 hours light; 50-60% humidity) and watered twice daily. After 9 days until the test was evaluated (10=total damage to plant, 0=no damage to plant)

Stellaria media = assay: as above; conditions: 1000 g/ha, evaluated after 9 days, 10=total damage to plant, 0=no damage to plant
Experimental: as §1

Amaranthus retroflexus = assay: as above; conditions: 1000 g/ha, evaluated after 9 days, 10=total damage to plant, 0=no damage to plant
Experimental: as §1

Nasturtium officinale = assay: as above; conditions: 1000 g/ha, evaluated after 9 days, 10=total damage to plant, 0=no damage to plant
Experimental: as §1

test plants = assay: Herbicidal action, post-emergence (Example B1), all test plants, result in words; conditions: same protocol as Example B1, post-emergence
Experimental: as §1

Row | SMILES | SOLNI damage to plant (Solanum nigrum) | STEME damage to plant (Stellaria media) | AMARE damage to plant (Amaranthus retroflexus) | NAAOF damage to plant (Nasturtium officinale) | damage to the test plants (test plants)
1 | CCc1cc(C)cc(CC)c1-c1c(O)c2cccnc2n(C)c1=O [D20, 3-(2,6-diethyl-4-methyl-phenyl)-4-hydroxy-1-methyl-1H-[1,8]naphthyridin-2-one] | 0 | 5 | 0 | 5 | 
2 | CCc1cc(C)cc(CC)c1-c1c(OC(=O)C(C)(C)C)c2cccnc2n(C)c1=O [D8] | 0 | 2 | 0 | 3 | 
3 | CC(C)C(=O)Oc1c(-c2c(F)ccc(F)c2Cl)c(=O)n(C)c2ncccc12 [D7] | 0 | 3 | 6 | 0 | 
4 | Cn1c(=O)c(-c2c(F)ccc(F)c2Cl)c(O)c2cccnc21 [D5] | 0 | 7 | 7 | 6 | 
5 | O=c1[nH]c2cccnc2c(O)c1-c1ccccc1OC(F)(F)F [A2] | 0 | 3 | 0 | 0 | 
6 | Cn1c(=O)c(-c2c(F)ccc(F)c2Cl)c(OC(=O)C(C)(C)C)c2ncccc21 [A5] | 7 | 0 | 0 | 3 | 
7 | CCc1cc(C)cc(CC)c1-c1c(OC(=O)C(C)C)c2ncccc2n(C)c1=O [A6] | 6 | 8 | 3 | 6 | 
8 | CCc1cc(C)cc(CC)c1-c1c(OC(=O)C(C)C)c2cccnc2n(C)c1=O [D6, isobutyric acid 3-(2,6-diethyl-4-methyl-phenyl)-1-methyl-2-oxo-1,2-dihydro-[1,8]naphthyridin-4-yl ester] | 0 | 2 | 0 | 0 | 
9 | Cn1c(=O)c(-c2c(F)ccc(F)c2Cl)c(O)c2ncccc21 [A3] | 3 | 3 | 6 | 4 | 
10 | O=c1[nH]c2ncccc2c(O)c1-c1cccnc1 [D11, 4-Hydroxy-3-pyridin-3-yl-1H-[1,8]naphthyridin-2-one] |  |  |  |  | little or no damage
11 | O=c1[nH]c2ncc(Br)cc2c(O)c1-c1c(F)cc(F)cc1F [D28] |  |  |  |  | little or no damage
12 | O=c1[nH]c2cccnc2c(O)c1-c1ccccn1 [A8] |  |  |  |  | little or no damage
13 | Cn1c(=O)c(-c2c(F)ccc(F)c2Cl)c(OC(=O)C(C)(C)C)c2cccnc21 [D9] | 0 | 2 | 3 | 2 | 
14 | O=c1[nH]c2nncnc2c(O)c1-c1c(F)cccc1Cl [E7] |  |  |  |  | little or no damage
15 | O=c1[nH]c2ncccc2c(O)c1-c1c(F)ccc(F)c1Cl [D4] |  |  |  |  | little or no damage
16 | O=c1[nH]c2ncccc2c(O)c1-c1ccc(Cl)cc1Cl [D1, 3-(2,4-dichloro-phenyl)-4-hydroxy-1H-[1,8]naphthyridin-2-one] |  |  |  |  | little or no damage
17 | O=c1[nH]c2ncccc2c(O)c1-c1ccccn1 [D12] |  |  |  |  | little or no damage
